These results are taken from PubChem BioAssay (NCI).

Each structure is given as a SMILES string.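 All cell lines were grown in 96-well plates and treated with compound for 48 hours. At the TGI there is no net growth.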

The subject of the first test is KM12 colon. Description: growth of human tumour cells (NCI), 48 h.
Turning to `COc1ccc(-c2nc(-c3cc4c(ccc5ccccc54)oc3=O)cs2)cc1`, the TGI was above 100 µM.
`Cc1cc(C)c(C(=O)c2nnc3ccccc3c2N)c(C)c1` gave a TGI of 42 µM.
Consider `CC1=CCC(C)=Nc2nc3ccccc3n21`, for which the TGI was above 100 µM.
Still for that read-out and setting: the same measure for `Cc1ccccc1N/C(=C(/C(Cl)=C(Cl)Cl)[N+](=O)[O-])n1nnc2ccccc21`: 29.4 µM.
For the compound `Cc1ccc(NC(=O)CSc2nnc(-c3ccc(N=Cc4ccc(Cl)cc4)cc3)o2)cc1`, the TGI is above 100 µM.
In the case of `CCC1CCc2c(c(=O)oc3c2cc(OC)c2cccc(OC)c23)C1` (stereo unspecified), the TGI was above 100 µM.
In turn, `COC(=O)C1=C(C(=O)Nc2cccnc2Cl)N(c2ccc(OC)cc2[N+](=O)[O-])C(c2ccc(C)cc2)=CC1c1ccc(OC)cc1OC` (stereo unspecified) gave a TGI of 16.3 µM.

The subject of a further test is MCF7 breast. As to the kind of experiment: growth of human tumour cells (NCI), 48 h.
`Cc1nn(C(=O)Cc2ccccc2)c2c1C(c1ccc(Cl)cc1)SC(N)=N2` (stereo unspecified) came in with a TGI above 100 µM.
Regarding `Nc1nc(NCC2(CO)CC2)cc(=O)[nH]1`, the TGI is above 100 µM.
As for `Cc1ccc(-c2n[nH]c(=O)n2/N=C\c2ccc([N+](=O)[O-])cc2)cc1`, the TGI was above 100 µM.
The compound `COc1ccc2c(c1)C(=O)OCCC2` yielded a TGI above 100 µM.
Same read-out and setting: the same measure for `COc1ccc(-n2cnn3c(=O)c4cn[nH]c4nc23)cc1`: above 10 µM; for `COc1ccc2c(c1)nc1n2C(c2c(Cl)cccc2Cl)SC1` (stereo unspecified): above 37.5 µM.
On the same count and under the same terms, the same measure for `CCOC(=O)c1c(NC(=O)OC)c(C#N)c2n1CCCCC2`: above 100 µM; for `COc1ccc(-c2nc(-c3cc4c(ccc5ccccc54)oc3=O)cs2)cc1`: above 100 µM.
As to `CC1=CCC(C)=Nc2nc3ccccc3n21`, the TGI was above 100 µM.
On the same count and under the same terms, the same measure for `N#Cc1[nH]c(=S)[nH]c1N`: above 100 µM; for `Cc1ccccc1N/C(=C(/C(Cl)=C(Cl)Cl)[N+](=O)[O-])n1nnc2ccccc21`: 86.5 µM.
In turn, `COC(=O)C1=C(C(=O)Nc2cccnc2Cl)N(c2ccc(OC)cc2[N+](=O)[O-])C(c2ccc(C)cc2)=CC1c1ccc(OC)cc1OC` (stereo unspecified) showed a TGI of 22.4 µM.

A further test deals with MDA-N. Description: growth of human tumour cells (NCI), 48 h.
With `Cc1cc(C)c(C(=O)c2nnc3ccccc3c2N)c(C)c1`, the TGI is 52.6 µM.

Another test concerns MOLT-4 leukemia. Description: growth of human tumour cells (NCI), 48 h.
In turn, `Cc1nn(C(=O)Cc2ccccc2)c2c1C(c1ccc(Cl)cc1)SC(N)=N2` (stereo unspecified) gave a TGI above 100 µM.
`Nc1nc(NCC2(CO)CC2)cc(=O)[nH]1` had a TGI above 100 µM.
The compound `S=c1[nH]c(=S)c2nnn(-c3ccccc3)c2[nH]1` gave a TGI above 100 µM.
Still for that read-out and setting: the same measure for `Cc1ccc(-c2n[nH]c(=O)n2/N=C\c2ccc([N+](=O)[O-])cc2)cc1`: above 100 µM.
As to `COc1ccc2c(c1)C(=O)OCCC2`, the TGI was above 100 µM.
With `COc1ccc(-n2cnn3c(=O)c4cn[nH]c4nc23)cc1`, the TGI was above 10 µM.
In turn, `COc1ccc2c(c1)nc1n2C(c2c(Cl)cccc2Cl)SC1` (stereo unspecified) gave a TGI above 100 µM.
On to `CCOC(=O)c1c(NC(=O)OC)c(C#N)c2n1CCCCC2`, for which the TGI was above 100 µM.
`COc1ccc(-c2nc(-c3cc4c(ccc5ccccc54)oc3=O)cs2)cc1`: the TGI is above 100 µM.
On the same count and under the same terms, next, `Cc1cc(C)c(C(=O)c2nnc3ccccc3c2N)c(C)c1`: above 100 µM; `CC1=CCC(C)=Nc2nc3ccccc3n21`: above 100 µM; `Cc1ccccc1N/C(=C(/C(Cl)=C(Cl)Cl)[N+](=O)[O-])n1nnc2ccccc21`: above 100 µM.
Take `Cc1ccc(NC(=O)CSc2nnc(-c3ccc(N=Cc4ccc(Cl)cc4)cc3)o2)cc1`: the TGI was above 100 µM.
The compound `CCC1CCc2c(c(=O)oc3c2cc(OC)c2cccc(OC)c23)C1` (stereo unspecified) registered a TGI above 100 µM.
The same measure, in the same setting: next, `COC(=O)C1=C(C(=O)Nc2cccnc2Cl)N(c2ccc(OC)cc2[N+](=O)[O-])C(c2ccc(C)cc2)=CC1c1ccc(OC)cc1OC` (stereo unspecified): 49.3 µM.

The test system of a further test is NCI-H226 lung. As to the kind of experiment: growth of human tumour cells (NCI), 48 h.
Consider `Nc1nc(NCC2(CO)CC2)cc(=O)[nH]1`, for which the TGI is above 100 µM.
On the same count and under the same terms, the same measure for `S=c1[nH]c(=S)c2nnn(-c3ccccc3)c2[nH]1`: above 100 µM.
Still for that read-out and setting: next, `Cc1ccc(-c2n[nH]c(=O)n2/N=C\c2ccc([N+](=O)[O-])cc2)cc1`: above 100 µM.
Still for that read-out and setting: the same measure for `COc1ccc2c(c1)C(=O)OCCC2`: above 100 µM; for `COc1ccc(-n2cnn3c(=O)c4cn[nH]c4nc23)cc1`: above 10 µM; for `COc1ccc2c(c1)nc1n2C(c2c(Cl)cccc2Cl)SC1` (stereo unspecified): above 100 µM.
For `CCOC(=O)c1c(NC(=O)OC)c(C#N)c2n1CCCCC2`, the TGI is above 100 µM.
Still for that read-out and setting: the same measure for `COc1ccc(-c2nc(-c3cc4c(ccc5ccccc54)oc3=O)cs2)cc1`: above 100 µM.
Compound `Cc1cc(C)c(C(=O)c2nnc3ccccc3c2N)c(C)c1` showed a TGI of 49.7 µM.
Compound `CC1=CCC(C)=Nc2nc3ccccc3n21` came in with a TGI above 100 µM.
The same measure, in the same setting: next, `N#Cc1[nH]c(=S)[nH]c1N`: above 100 µM; `Cc1ccccc1N/C(=C(/C(Cl)=C(Cl)Cl)[N+](=O)[O-])n1nnc2ccccc21`: 35.3 µM.
`CNS(=O)(=O)NNS(=O)(=O)c1ccc(Br)cc1` showed a TGI above 100 µM.
On the same count and under the same terms, next, `Cc1ccc(NC(=O)CSc2nnc(-c3ccc(N=Cc4ccc(Cl)cc4)cc3)o2)cc1`: above 100 µM; `CCC1CCc2c(c(=O)oc3c2cc(OC)c2cccc(OC)c23)C1` (stereo unspecified): above 100 µM.
`COC(=O)C1=C(C(=O)Nc2cccnc2Cl)N(c2ccc(OC)cc2[N+](=O)[O-])C(c2ccc(C)cc2)=CC1c1ccc(OC)cc1OC` (stereo unspecified): the TGI is 38.1 µM.

The next test relates to NCI-H23 lung. As to the kind of experiment: growth of human tumour cells (NCI), 48 h.
`Cc1nn(C(=O)Cc2ccccc2)c2c1C(c1ccc(Cl)cc1)SC(N)=N2` (stereo unspecified) gave a TGI above 100 µM.
On the same count and under the same terms, the same measure for `Nc1nc(NCC2(CO)CC2)cc(=O)[nH]1`: above 100 µM; for `S=c1[nH]c(=S)c2nnn(-c3ccccc3)c2[nH]1`: above 100 µM.
Still for that read-out and setting: next, `Cc1ccc(-c2n[nH]c(=O)n2/N=C\c2ccc([N+](=O)[O-])cc2)cc1`: above 100 µM.
The same measure, in the same setting: next, `COc1ccc2c(c1)C(=O)OCCC2`: above 100 µM; `COc1ccc(-n2cnn3c(=O)c4cn[nH]c4nc23)cc1`: above 10 µM; `COc1ccc2c(c1)nc1n2C(c2c(Cl)cccc2Cl)SC1` (stereo unspecified): above 100 µM.
Compound `CCOC(=O)c1c(NC(=O)OC)c(C#N)c2n1CCCCC2` returned a TGI above 100 µM.
Compound `Cc1cc(C)c(C(=O)c2nnc3ccccc3c2N)c(C)c1` registered a TGI above 100 µM.
The compound `CC1=CCC(C)=Nc2nc3ccccc3n21` returned a TGI above 100 µM.
On the same count and under the same terms, next, `N#Cc1[nH]c(=S)[nH]c1N`: above 100 µM; `Cc1ccccc1N/C(=C(/C(Cl)=C(Cl)Cl)[N+](=O)[O-])n1nnc2ccccc21`: 33.3 µM; `CNS(=O)(=O)NNS(=O)(=O)c1ccc(Br)cc1`: above 100 µM.
Still for that read-out and setting: next, `Cc1ccc(NC(=O)CSc2nnc(-c3ccc(N=Cc4ccc(Cl)cc4)cc3)o2)cc1`: above 100 µM.
For `CCC1CCc2c(c(=O)oc3c2cc(OC)c2cccc(OC)c23)C1` (stereo unspecified), the TGI was above 100 µM.
Turning to `COC(=O)C1=C(C(=O)Nc2cccnc2Cl)N(c2ccc(OC)cc2[N+](=O)[O-])C(c2ccc(C)cc2)=CC1c1ccc(OC)cc1OC` (stereo unspecified), the TGI was above 85 µM.

The next test has as its system NCI-H460 lung. Description: growth of human tumour cells (NCI), 48 h.
Regarding `Cc1nn(C(=O)Cc2ccccc2)c2c1C(c1ccc(Cl)cc1)SC(N)=N2` (stereo unspecified), the TGI is above 100 µM.
The compound `Nc1nc(NCC2(CO)CC2)cc(=O)[nH]1` had a TGI above 100 µM.
`S=c1[nH]c(=S)c2nnn(-c3ccccc3)c2[nH]1` gave a TGI above 100 µM.
The compound `Cc1ccc(-c2n[nH]c(=O)n2/N=C\c2ccc([N+](=O)[O-])cc2)cc1` had a TGI above 100 µM.
